Data: article PMC10327518 (Journal of Enzyme Inhibition and Medicinal Chemistry, 2023)
Several values for one entry are separate records, joined by “and”; a condition that tells them apart may be missing. Equal entries are not always repeated. Where two headings read alike, the source gives them in different places.

What was measured:
[1] = target: T1, eeAChE (electric eel AChE) (Electrophorus electricus, UniProt O42275); assay: biochemical; details: for inhibition at 25 µM: read-out: Inhibition percent rate eeAChE
T1 construct: purchased Sigma-Aldrich Co; host or cells: electric eel (natural source)
T1 sequence (O42275 24-633): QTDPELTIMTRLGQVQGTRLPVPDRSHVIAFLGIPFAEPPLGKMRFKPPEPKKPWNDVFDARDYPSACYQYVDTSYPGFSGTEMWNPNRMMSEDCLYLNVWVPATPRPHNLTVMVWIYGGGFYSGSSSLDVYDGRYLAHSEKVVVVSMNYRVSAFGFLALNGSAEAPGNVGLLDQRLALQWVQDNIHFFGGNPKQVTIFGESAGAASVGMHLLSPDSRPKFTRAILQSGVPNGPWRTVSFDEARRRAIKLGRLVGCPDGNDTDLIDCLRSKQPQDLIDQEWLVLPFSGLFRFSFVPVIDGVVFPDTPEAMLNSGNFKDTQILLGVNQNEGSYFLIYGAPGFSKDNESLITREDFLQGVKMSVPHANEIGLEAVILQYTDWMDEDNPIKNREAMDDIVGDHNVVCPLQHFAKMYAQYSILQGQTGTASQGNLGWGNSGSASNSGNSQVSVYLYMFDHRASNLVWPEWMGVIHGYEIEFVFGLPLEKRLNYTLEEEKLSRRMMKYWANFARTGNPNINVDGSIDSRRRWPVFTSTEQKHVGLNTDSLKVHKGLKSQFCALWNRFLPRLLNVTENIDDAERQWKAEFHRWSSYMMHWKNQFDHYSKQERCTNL
Method: (§1) 2.1 Inhibition experiments of AChE and BuChE. The modified Ellman method was
(§2) performed to test the AChE and BChE inhibitory ability of the compounds, using
(§3) eeAChE and eqBChE (Sigma-Aldrich Co.). […]

[2] = target: T2, eqBuChE (equine serum BuChE) (Equus caballus, UniProt P81908); assay: biochemical; details: for SI: SI = IC50 (AChE)/IC50 (BuChE); for inhibition at 25 µM: read-out: Inhibition percent rate eqBuChE
T2 construct: purchased Sigma-Aldrich Co; host or cells: equine serum (natural source)
T2 sequence (P81908 whole entry): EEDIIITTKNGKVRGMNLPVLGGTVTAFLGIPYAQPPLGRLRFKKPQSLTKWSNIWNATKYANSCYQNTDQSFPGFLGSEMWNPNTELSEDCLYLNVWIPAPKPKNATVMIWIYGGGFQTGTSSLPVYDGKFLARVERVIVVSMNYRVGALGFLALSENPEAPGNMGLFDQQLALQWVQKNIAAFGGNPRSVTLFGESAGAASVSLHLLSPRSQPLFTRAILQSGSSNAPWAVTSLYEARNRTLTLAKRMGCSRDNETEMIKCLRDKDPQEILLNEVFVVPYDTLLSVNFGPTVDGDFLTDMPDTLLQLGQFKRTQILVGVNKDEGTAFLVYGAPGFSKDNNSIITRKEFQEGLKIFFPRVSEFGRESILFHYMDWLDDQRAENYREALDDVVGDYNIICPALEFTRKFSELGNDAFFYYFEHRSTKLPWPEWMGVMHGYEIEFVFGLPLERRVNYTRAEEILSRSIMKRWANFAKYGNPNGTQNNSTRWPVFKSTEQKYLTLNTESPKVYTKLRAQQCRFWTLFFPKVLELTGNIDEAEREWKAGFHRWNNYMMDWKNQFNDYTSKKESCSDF
Method: as §1, §2, §3

[3] = target: T3, eqBuChE (Equus caballus, UniProt P81908); assay type: biochemical, equine
T3 construct: purchased Sigma-Aldrich Co; host or cells: equine serum (natural source)
T3 sequence (P81908 whole entry): as above
Text: Further, the recovery capability of BuChE inhibitory effect after dilution was monitored by time.
Figure 2.

[4] = test system: scopolamine-induced cognitive dysfunction in mice; assay: Step-down passive avoidance task, scopolamine-induced cognitive dysfunction; assay type: in vivo
Method: The in vivo effects of 5a were determined through the step-down passive avoidance task. […]. page 9: […]
Assay method. The step-down passive avoidance task was employed to investigate
the effects of 5a on scopolamine-induced memory impairment.21,22 Sixty mice were
random divide into six groups. […]

[5] = target: cholinesterase; parameters: method as in PMID 11429429; details: read-out: IC50 anticholinesterase activity; cited from earlier work
[6] = test system: BV-2 cells; assay: Cytotoxicity on BV-2 cells, CCK-8 assay; assay type: cell-based; details: at 10 μM
Method: 5a was chosen to evaluate the anti-inflammation property through testing the production of IL-1β, IL-6, and NO in LPS-induced BV-2 cells[25]^,[26]. First of all, the cytotoxicity of 5a was determined through the CCK-8 assay.
2.1 Inhibition experiments of AChE and BuChE. The modified Ellman method was performed to test the AChE and BChE inhibitory ability of the compounds, using eeAChE and eqBChE (Sigma-Aldrich Co.). The detailed procedure referenced our […]
2.2 Anti-inflammatory property. BV-2 cells were cultured in DMEM containing 10% fetal bovine serum, 100 U/mL penicillin, 100 U/mL streptomycin, and 1% nonessential amino acid at 37℃ with 5% CO2.
BV-2 cells in logarithmic growth stage were digested and centrifuged, and then resuspended in DMEM medium containing 1% penicillin-streptomycin and 10% fetal bovine serum. The cells was adjusted to 1.2 × 10^4 cells/well, and then seeded evenly in 96-well cell culture plates. The cells were incubated for 36 h at 37℃ with 5% CO2. […]
BV-2 cells (2 × 10^5 cells/well) were seeded in a 24-well cell culture plates. […] The content of NO in cell culture supernatant was determined by Griess method, and the levels of cytokines IL-6 and IL-1β in cell culture supernatant were determined by IL-6 ELISA kit and IL-1β ELISA kit, respectively.

[7] = test system: IL-6 production in LPS-stimulated BV-2 cells; assay: IL-6 production in LPS-stimulated BV-2 cells (ELISA); assay type: cell-based; details: LPS 1 μg/mL
[8] = test system: IL-1β production in LPS-stimulated BV-2 cells; assay: IL-1β production in LPS-stimulated BV-2 cells (ELISA); assay type: cell-based
[9] = test system: NO release in LPS-stimulated BV-2 cells; assay: NO release in LPS-stimulated BV-2 cells (Griess method); assay type: cell-based; details: 1, 3, and 9 μM; LPS 1 μg/mL (model 31.9 μM)
[10] = test system: PC12 cells; assay: Cytotoxicity on PC12 cells, CCK-8 assay; assay type: cell-based; details: at 30 μM
Text: (§4) 2.3 Neuroprotective effects on Aβ25-35-induced PC12 cells injury.
(§5) (1) Materials and reagents. PC12 cell (Purchased from the Cell Bank of Shanghai
(§6) Institute of Cell Biology, Chinese Academy of Sciences),
(§7) DME H-21 4.5g/Liter Glucose(Gibco), Fetal bovine serum (Vicente),
(§8) cellcountingkit-8, CCK8(Shanghai Biyuntian Biotechnology Co. , Ltd), 1%
(§9) penicillin-streptomycin (Double antibody, cellmax), Double antibody (Beijing
(§10) Co., Ltd), a phosphate -buffered solution , (PBS, Beijing Solebao Technology Co., Ltd),
(§11) (2) Istrument. Cell culture incubator(Thermo Scientific), Ultra-clean
(§12) workbench(Jiangsu Sujing Group Co., Ltd), Inverted phase-contrast fluorescence
(§13) microscope(Japan Nikon Corporation), Varioska full-wavelength multifunction
(§14) microplate reader(Thermo Scientific), Digital display constant temperature water bath
(§15) pot(Bangsi Instrument Technology Co., Ltd), 1/100,000 electronic balance(Shanghai
Jinghai Instrument Co., Ltd).
(§16) In this experiment, the cell viability was detected using CCK-8 kit and
(§17) (3) PC12 Cell complete medium formulation. Recover PC12 cells, use 10% fetal
(§18) bovine serum 50mL, 5% equine serum 25mL and 1% penicillin mixture 5mL, and
(§19) finally add DMEM high-sugar medium solution to 500mL, that is, to obtain.
(§20) (4) PC12 Cell Recover. Quickly remove the cells from the -80 °C freezer, shake
in a 37 °C water bath pot to dissolve quickly, disinfect the cryopreservation tube and […]

[11] = Stability in artificial gastrointestinal fluids; assay type: in vitro ADME; details: 37 °C
Method: Based on the above data, 5a was chosen to evaluate the stabilities by artificial gastrointestinal solution, blood plasma, and rat liver microsomes.
Cell viability(%) = (Asample-Ablank)/(Acontrol-Ablank) ×100%. Asample, Ablank and Acontrol
medium, or vehicle, respectively.
method described in China Pharmacopoeia (version 2015). The artificial gastric fluid
described above without pepsin and trypsin. Compound 5a (1 mg/mL, n = 3) was
Supernatant was collected by
were processed by GraphPad Prism 8.0 software.
Solution B (25 mL) contained

[12] = Rat liver microsomes stability; assay type: in vitro ADME; details: n = 3, read-out: t1/2 in rat liver microsomes
Method: microsomes was purchased from Dalian Meilun Biotechnology Co., Ltd, DaLian,
China. Briefly, solution A (10 mL) contained G-6-P-Na2 (200 mg), NADPNa2 (200
G-6-P-DH (1000 U), Na-Citrate2 (200 mg), and H2O was used as a solvent. NADPH
solution (1 mM) was composed by solution A and solution B (v/v = 5:1). Compound
was dissolved in DMSO to obtain 1 mg/mL stock solution. Rat liver microsomes was
added to compound solution (the final concentration of compound and rat liver
microsomes was 10 μg/mL and 0.5 mg/mL, respectively) (n = 3). The reaction was
started by the addition of NADPH. The total mixture (200 μL) was incubated at 37 °C.
Cold methanol (600 μL) was added at 0, 5, 15, 20, 30, 45 and 60 min , respectively, to
stop the reaction. Samples were centrifuged at 13000 rpm fo r 10 min at 4 °C, and 100
μL supernatant was removed and analyzed by UPLC-MS/MS. The stability results
were presented as % remaining vs. time.

[13] = Plasma stability; assay type: in vitro ADME; details: rat, n = 3, read-out: t1/2 in blood plasma (converted)
Method: (3) The stability of compound was performed in rat plasma.
mg/mL) were dissolved in DMSO, and the reaction (10 μg/mL, n = 3) was prepared
by mixing 198 μL plasma with 2 μL compounds solution, then incubated in 37 ◦C and
stopped by adding 600 μL methanol at time of 0, 0.5, 1, 1.5, 2 and 3 h, followed by
centrifugation at 13,000 rpm for 10 min at 4 °C. The supernatant was dried and
redissolved in 100 μL methanol. After centrifugation, the supernatant was analyzed
by UPLC-MS/MS. The stability data was presented as remaining percentage vs time.

[14] = test system: Aβ25-35-induced PC12 cell injury; assay: cells; details: Rattus norvegicus, PC-12, read-out: PC12 cells viability
Text: as §4, §5, §6, §7, §8, §9, §10, §11, §12, §13, §14, §15
Jinghai Instrument Co., Ltd).
as §16, §17, §18, §19, §20
in a 37 °C water bath pot to dissolve quickly, disinfect the cryopreservation tube and
transfer it to the ultra-clean table, transfer the cryopreservation in the cryopreservation
tube to a 15 mL centrifuge tube, add 3 mL of complete medium, gently blow well
with a pipette, centrifuge at 1000 *g at room temperature for 5 min, discard the upper
layer of medium, add 4 mL complete medium again, gently blow well and transfer to
the culture flask, transfer to the incubator at 37 °C, 5% CO2, saturation humidity, and
change the liquid every other day.
(5) PC12 Cell Passage. During the logarithmic growth phase of cell growth, add
complete medium to stop digestion, transfer to a 15 mL centrifuge tube, centrifuge at
1000 *g at room temperature for 5 min, discard the upper layer medium, 1:4
(7) Preparation of sample solutions. […]

[15] = test system: Kunming mice; assay: Acute toxicity (safety profile) in mice; details: 500 mg/kg, intragastric administration
Method: gender) were supplied by the Center of Experimental Animals of Sichuan Academy of
Chinese Medicine Sciences (eligibility certiﬁcation no. SCXK-Chuan2018-19). Mice
20−22 °C with a relative humidity of 60−70%. Sterile food and water were provided
according to institutional guidelines. Prior to each experiment, mice were fasted
overnight and allowed free access to water.
1000 mg/kg (n = 6 per group) by intragastric administration. After the administration
occasionally thereafter for 14 days for the onset of any delayed effects. All animals
were sacrificed on the 14th day after drug administration and were macroscopically

[16] = mean ± SD, read-out: IC50 ± SD eeAChE
[17] = mean ± SD, read-out: IC50 ± SD eqBuChE

`O=C(Oc1ccc(C(=O)N2CCC(Cc3ccccc3)CC2)c(OC(=O)N2CCCC2)c1)N1CCCC1` [Compound 5d, 4-(4-Benzylpiperidine-1-carbonyl)-1,3-phenylene bis(pyrrolidine-1-carboxylate)] showed an IC50 [1, 16] of 22.3 ± 1.8 µM, an SI [2] of 2.6 and an IC50 [2, 17] of 8.7 ± 0.93 µM.

With `CCN(C)C(=O)Oc1ccc(OC(=O)N(C)CC)c(C(=O)N2CCC(Cc3ccccc3)CC2)c1` [Compound 5g, 2-(4-Benzylpiperidine-1-carbonyl)-1,4-phenylene bis(ethyl(methyl)carbamate)] the IC50 [1] was 4.9 ± 0.68 µM, the IC50 [2] was 13.5 ± 0.52 µM and the SI [2] was 0.36.

Molecule `CN(C)C(=O)Oc1ccc(OC(=O)N(C)C)c(C(=O)N2CCC(Cc3ccccc3)CC2)c1` [Compound 5f, 2-(4-Benzylpiperidine-1-carbonyl)-1,4-phenylene bis(dimethylcarbamate)] has an IC50 [1] of 5.2 ± 0.35 µM, an IC50 [2] of 16.3 ± 0.86 µM and an SI [2] of 0.32.

In the case of `CCN(C)C(=O)Oc1cccc([C@H](C)N(C)C)c1` [Rivastigmine, rivastigmine, reference compound], the “BChE activity (% control)” value [3] is reported as 53.2 % control and 49.8 % control, the BuChE activity recovered [3] is reported as 68.7% and the “Type of inhibition (reversibility)” value [3] is reported as “pseudo-irreversible”. The eqBuChE activity restored [3] was “no significant recovery”.

`COc1cc2c(cc1OC)C(=O)C(CC1CCN(Cc3ccccc3)CC1)C2` (stereo not drawn) [Donepezil, donepezil, reference compound] gave a Step-down latency ([4]; donepezil 2.0 mg/kg, scopolamine 2.0 mg/kg (model 42.1 s)) of 144.3 s.

For `O=C(O)c1ccccc1O` [SA, Salicylic acid], the IC50 [5] is listed as 346 µM.

Work on `CC(C)N(C(=O)Oc1ccc(OC(=O)N(C(C)C)C(C)C)c(C(=O)N2CCC(Cc3ccccc3)CC2)c1)C(C)C` [Compound 5h, 2-(4-Benzylpiperidine-1-carbonyl)-1,4-phenylene bis(diisopropylcarbamate)] yielded an IC50 [1, 16] of 8.2 ± 0.67 µM, an SI [2] of 0.49 and an IC50 [2, 17] of 16.7 ± 1.2 µM.

With `O=C(O)c1ccc(O)cc1O` [Compound 1a, 2,4-dihydroxybenzoic acid] the inhibition at 25 µM [1] was 16.3 ± 0.17% and the inhibition at 25 µM [2] was 25.8 ± 0.93%.

In the case of `CCN(C)C(=O)Oc1ccc(C(=O)N2CCC(Cc3ccccc3)CC2)c(OC(=O)N(C)CC)c1` [Compound 5b, 4-(4-Benzylpiperidine-1-carbonyl)-1,3-phenylene bis(ethyl(methyl)carbamate)], the IC50 [1] is reported as 6.3 ± 0.41 µM, the IC50 [2] is reported as 2.6 ± 1.8 µM and the SI [2] is reported as 2.4.

`CC(C)N(C(=O)Oc1ccc(C(=O)N2CCC(Cc3ccccc3)CC2)c(OC(=O)N(C(C)C)C(C)C)c1)C(C)C` [Compound 5c, 4-(4-Benzylpiperidine-1-carbonyl)-1,3-phenylene bis(diisopropylcarbamate)] gave an IC50 [1, 16] of 7.1 ± 0.23 µM, an SI [2] of 0.66 and an IC50 [2, 17] of 10.8 ± 0.56 µM.

`O=C(Oc1ccc(C(=O)N2CCC(Cc3ccccc3)CC2)c(OC(=O)N2CCOCC2)c1)N1CCOCC1` [Compound 5e, 4-(4-Benzylpiperidine-1-carbonyl)-1,3-phenylene bis(morpholine-4-carboxylate)] gave an IC50 [1, 16] of 18.3 ± 0.87 µM, an SI [2] of 1.4 and an IC50 [2, 17] of 13.1 ± 0.72 µM.

In the case of `CN(C)C(=O)Oc1ccc(C(=O)N2CCC(Cc3ccccc3)CC2)c(OC(=O)N(C)C)c1` [Compound 5a, 4-(4-Benzylpiperidine-1-carbonyl)-1,3-phenylene bis(dimethylcarbamate)], the IC50 [1] is reported as 7.8 ± 0.36 µM, the IC50 [2] is reported as 0.53 ± 0.01 µM and the SI [2] is reported as 14.7. The BuChE activity recovered ([3]; 0.1 × IC50, at 120 min, Figure 2(B)) was 63.9%, the “BChE activity (% control)” value ([3]; 1*IC50, Figure 2(A)) was 48.6 % control and the eqBuChE activity restored ([3]; after dilution to 0.1 × IC50, text on Figure 2(A)) was “no significant recovery”. For the same molecule, the “BChE activity (% control)” value ([3]; diluted to 0.1*IC50, Figure 2(A)) was 46.7 % control, the “Type of inhibition (reversibility)” value ([3]; from recovery after dilution) was “pseudo-irreversible” and the “Cytotoxicity on BV-2 cells” value [6] was “did not produce significant cytotoxicity”. For the same molecule, the “Level of IL-6” value ([7]; 5a 3 μM) was 505.3 pg/mL, the “Level of IL-6” value ([7]; 5a 9 μM) was 971.1 pg/mL and the “Level of IL-1β” value ([8]; 5a 1 μM, LPS 1 μg/mL (model 302.7 pg/mL)) was 67.2 pg/mL. For the same molecule, the “Level of IL-1β” value ([8]; 5a 3 μM, LPS 1 μg/mL) was 90.9 pg/mL, the “Level of IL-1β” value ([8]; 5a 9 μM, LPS 1 μg/mL) was 163.4 pg/mL and the “Release volume of NO” value [9] was “remarkably declined”. The “Cytotoxicity on PC12 cells” value [10] was “no obvious cytotoxicity”, the Residual amount ([11]; after 8 h incubation in artificial gastric juice) was 95.6% and the Residual amount ([11]; after 8 h incubation in artificial intestinal juice) was 110.6%. For the same molecule, the Residual amount ([11]; after 8 h incubation in blank gastric juice) was 99.5%, the Residual amount ([11]; after 8 h incubation in blank intestinal juice) was 97.5% and the half-life at 10 μg/mL [12] was 0.32 h. The half-life at 10 μg/mL [13] was 3.25 h, the Step-down latency ([4]; 5a 1.23 mg/kg, scopolamine 2.0 mg/kg) was 140.1 s and the Step-down latency ([4]; 5a 2.45 mg/kg, scopolamine 2.0 mg/kg) was 77.8 s. For the same molecule, the Step-down latency ([4]; 5a […], scopolamine 2.0 mg/kg) was 105.2 s, the viability at 1 µM [14] was 61.7% and the viability at 3 µM [14] was 68.6%. The viability at 9 µM [14] was 83.3% and the “Abnormal behaviour (safety profile)” value [15] was “did not present abnormal behaviour”.

Molecule `O=C(O)c1cc(O)ccc1O` [Compound 1b, 2,5-dihydroxybenzoic acid] has an inhibition at 25 µM [1] of 20.6 ± 1.2% and an inhibition at 25 µM [2] of 18.2 ± 0.67%.
